Measured values: PubChem BioAssay (NCI)
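The concentration for 50% growth inhibition is given as GI50. TGI: total growth inhibition.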

Assays:
Experiment in all cases: NCI anticancer screen, dose series, 384-well format
786-0 renal = system: 786-0 renal
A498 renal = system: A498 renal
A549 NSCLC = system: A549 NSCLC
ACHN renal = system: ACHN renal
BT-549 breast = system: BT-549 breast
CAKI-1 renal = system: CAKI-1 renal
CCRF-CEM leukemia = system: CCRF-CEM leukemia
COLO 205 colon = system: COLO 205 colon
DU-145 prostate = system: DU-145 prostate
EKVX NSCLC = system: EKVX NSCLC
HCC-2998 colon = system: HCC-2998 colon
HCT-116 colon = system: HCT-116 colon
HCT-15 colon = system: HCT-15 colon
HL-60(TB) leukemia = system: HL-60(TB) leukemia
HOP-62 NSCLC = system: HOP-62 NSCLC
HOP-92 NSCLC = system: HOP-92 NSCLC
HS 578T breast = system: HS 578T breast
HT29 colon = system: HT29 colon
K-562 leukemia = system: K-562 leukemia
KM12 colon = system: KM12 colon
LOX IMVI melanoma = system: LOX IMVI melanoma
M14 melanoma = system: M14 melanoma
MALME-3M melanoma = system: MALME-3M melanoma
MCF7 breast = system: MCF7 breast
MDA-MB-231 breast = system: MDA-MB-231 breast
MDA-MB-435 melanoma = system: MDA-MB-435 melanoma
MDA-MB-468 breast = system: MDA-MB-468 breast
MOLT-4 leukemia = system: MOLT-4 leukemia
NCI-H226 lung = system: NCI-H226 lung
NCI-H23 lung = system: NCI-H23 lung
NCI-H322M lung = system: NCI-H322M lung
NCI-H460 NSCLC = system: NCI-H460 NSCLC
NCI-H522 lung = system: NCI-H522 lung
NCI/ADR-RES ovarian = system: NCI/ADR-RES ovarian
OVCAR-3 ovarian = system: OVCAR-3 ovarian
OVCAR-4 ovarian = system: OVCAR-4 ovarian
OVCAR-8 ovarian = system: OVCAR-8 ovarian
RPMI-8226 leukemia = system: RPMI-8226 leukemia
RXF 393 renal = system: RXF 393 renal
SF-268 CNS = system: SF-268 CNS
SF-295 CNS = system: SF-295 CNS
SF-539 CNS = system: SF-539 CNS
SK-MEL-28 melanoma = system: SK-MEL-28 melanoma
SK-MEL-5 melanoma = system: SK-MEL-5 melanoma
SK-OV-3 ovarian = system: SK-OV-3 ovarian
SN12C renal = system: SN12C renal
SNB-19 CNS = system: SNB-19 CNS
SNB-75 CNS = system: SNB-75 CNS
SR leukemia = system: SR leukemia
SW-620 colon = system: SW-620 colon
T-47D breast = system: T-47D breast
TK-10 renal = system: TK-10 renal
U251 glioblastoma = system: U251 glioblastoma
UACC-257 melanoma = system: UACC-257 melanoma
UACC-62 melanoma = system: UACC-62 melanoma
UO-31 renal = system: UO-31 renal

## CCc1cc(C(N)=O)ccc1-n1nc(C(C)C)c2c(-n3cnc(-c4cnn(C)c4)c3)ccnc21
786-0 renal
  GI50: 0.825 µM
  TGI: > 100 µM
A498 renal
  GI50: 1.11 µM
  TGI: > 100 µM
A549 NSCLC
  GI50: 0.411 µM
  TGI: > 100 µM
ACHN renal
  GI50: 0.902 µM
  TGI: > 100 µM
BT-549 breast
  GI50: 0.651 µM
  TGI: 9.96 µM
CAKI-1 renal
  GI50: 0.767 µM
  TGI: > 100 µM
CCRF-CEM leukemia
  GI50: 0.289 µM
  TGI: 1.25 µM
COLO 205 colon
  GI50: 0.392 µM
  TGI: > 100 µM
DU-145 prostate
  GI50: 0.369 µM
  TGI: 5.8 µM
EKVX NSCLC
  GI50: 0.712 µM
  TGI: > 100 µM
HCC-2998 colon
  GI50: 0.406 µM
  TGI: 1.87 µM
HCT-116 colon
  GI50: 0.561 µM
  TGI: 82.9 µM
HCT-15 colon
  GI50: 0.534 µM
  TGI: > 100 µM
HL-60(TB) leukemia
  GI50: 0.189 µM
  TGI: 0.405 µM
HOP-62 NSCLC
  GI50: 0.584 µM
  TGI: > 100 µM
HOP-92 NSCLC
  GI50: 0.675 µM
  TGI: 3.06 µM
HS 578T breast
  GI50: 0.418 µM
  TGI: 2.23 µM
HT29 colon
  GI50: 0.398 µM
  TGI: > 100 µM
K-562 leukemia
  GI50: 0.326 µM
  TGI: 3.66 µM
KM12 colon
  GI50: 0.374 µM
  TGI: > 100 µM
LOX IMVI melanoma
  GI50: 0.382 µM
  TGI: 1.26 µM
M14 melanoma
  GI50: 0.488 µM
  TGI: 23 µM
MALME-3M melanoma
  GI50: 0.24 µM
  TGI: 0.502 µM
MCF7 breast
  GI50: 0.305 µM
  TGI: > 100 µM
MDA-MB-231 breast
  GI50: 0.643 µM
  TGI: 6.07 µM
MDA-MB-435 melanoma
  GI50: 0.653 µM
  TGI: > 100 µM
MDA-MB-468 breast
  GI50: 0.276 µM
  TGI: 0.595 µM
MOLT-4 leukemia
  GI50: 0.182 µM
  TGI: 0.349 µM
NCI-H226 lung
  GI50: 3.04 µM
  TGI: > 100 µM
NCI-H23 lung
  GI50: 0.301 µM
  TGI: 0.873 µM
NCI-H322M lung
  GI50: 0.799 µM
  TGI: > 100 µM
NCI-H460 NSCLC
  GI50: 0.285 µM
  TGI: 0.645 µM
NCI-H522 lung
  GI50: 0.21 µM
  TGI: 0.458 µM
NCI/ADR-RES ovarian
  GI50: 16.9 µM
  TGI: 75.4 µM
OVCAR-3 ovarian
  GI50: 0.454 µM
  TGI: 2.23 µM
OVCAR-4 ovarian
  GI50: 6.01 µM
  TGI: > 100 µM
OVCAR-8 ovarian
  GI50: 0.396 µM
  TGI: 1.62 µM
RPMI-8226 leukemia
  GI50: 0.376 µM
  TGI: 1.09 µM
RXF 393 renal
  GI50: 0.236 µM
  TGI: 0.614 µM
SF-268 CNS
  GI50: 0.51 µM
  TGI: > 100 µM
SF-295 CNS
  GI50: 0.426 µM
  TGI: 1.66 µM
SF-539 CNS
  GI50: 0.304 µM
  TGI: 0.768 µM
SK-MEL-28 melanoma
  GI50: 0.387 µM
  TGI: 20 µM
SK-MEL-5 melanoma
  GI50: 0.532 µM
  TGI: 39.1 µM
SK-OV-3 ovarian
  GI50: 0.738 µM
  TGI: > 100 µM
SN12C renal
  GI50: 0.412 µM
  TGI: 2.44 µM
SNB-19 CNS
  GI50: 0.778 µM
  TGI: > 100 µM
SNB-75 CNS
  GI50: 0.402 µM
  TGI: 2.02 µM
SR leukemia
  GI50: 0.169 µM
  TGI: 0.329 µM
SW-620 colon
  GI50: 0.407 µM
  TGI: 15.5 µM
T-47D breast
  GI50: 1.59 µM
  TGI: 10.1 µM
TK-10 renal
  GI50: 0.487 µM
  TGI: > 100 µM
U251 glioblastoma
  GI50: 0.485 µM
  TGI: 3.08 µM
UACC-257 melanoma
  GI50: 5.93 µM
  TGI: > 100 µM
UACC-62 melanoma
  GI50: 0.702 µM
  TGI: 3.24 µM
UO-31 renal
  GI50: 1.13 µM
  TGI: > 100 µM
